This note sets out measurements from publication PMC5004293, “Characterization of FRM-36143 as a new γ-secretase modulator for the potential treatment of familial Alzheimer’s disease” (Alzheimer's Research & Therapy, 2016).

This test concerns γ-secretase. Put plainly: Acute oral treatment of rats, brain and CSF Aβ peptides. Type of test: in vivo, rat. The protocol: For in vivo assessment of compound efficacy, brain tissue and cerebrospinal fluid (CSF) were collected, snap frozen in liquid nitrogen, and stored at −80 °C. Brain hemispheres were homogenized in 0.6 % diethylamine (DEA) in 50 mM NaCl containing protease inhibitor cocktail (cOmplete mini, EDTA-free, Roche) using sonication (Branson) at 23 % amplitude for 30 s. Homogenates were spun at 227,000 × g for 25 min at 4 °C. Supernatants were diluted fivefold in PBS-T (0.05 % Tween-20) containing 0.67 % BSA and added to the ELISA plate. For CSF, samples were diluted threefold in the PBS-T/BSA buffer. Detection was performed using the SuperSignal™ ELISA Femto substrate (Thermo Fisher), and luminescence was read on an EnVision plate reader (Perkin Elmer).
Mice and rats were maintained on 12/12 h light/dark cycle with food available ad libitum. Drug treatment was prepared in a vehicle of 1 % carboxymethylcellulose (CMC):Tween80 (99.5:0.5). Twelve-week-old wild-type male mice (129S6, Taconic Biosciences, Hudson, NY, USA) or rats (Wistar, Charles River Laboratories) were administered compound p.o. without prior fasting and euthanized by CO2 asphyxiation at specified times post-dosing. After extraction of the brain, the olfactory bulb and hindbrain were removed and the cerebral hemispheres separated (mice) or cut in 4 pieces (rats). The cerebellum was removed for bioanalysis of the compound. CSF was collected from the cisterna magna and blood from a cardiac puncture.

[1] abbreviates: rats, 30 mg/kg p.o., 6 h post-dose.

For `COc1nc(C2=NOC[C@H](c3cc4ccccc4o3)N2)ccc1-n1cnc(C)c1` [FRM-36143, (R)-5-(benzofuran-2-yl)-3-(6-methoxy-5-(4-methyl-1H-imidazol-1-yl)pyridin-2-yl)-5,6-dihydro-4H-1,2,4-oxadiazine], for the setting “rat CSF”, the “Aβ42 reduced to % of the baseline in rat cerebrospinal fluid” value is 58%. Also, under setting [1], the “Brain Aβ37 increase vs vehicle” value stood at 2.5 fold, the “Brain Aβ42 reduction vs vehicle” value was found to be 30% and the “CSF Aβ42 reduction vs vehicle” value came to 58%. Also, the “CSF Aβ37 increase vs vehicle” value (rats, 30 mg/kg p.o., 6 h post-dose, vehicle values close to detection limit) is listed as 20 fold.
